What was measured:
Format in all cases: in vivo
[1] = system: Digitaria ciliaris; assay: Test Example 5: herbicidal effect by foliage application, plastic box (symbol F); details: 320 g/ha, 3 weeks after application
Outline: (§1)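 After sowing into sterilized diluvial soil and growing two weeks under glass at 25° C. to 30° C., seedlings receive a uniform foliar spray of diluted emulsion. Damage is judged visually three weeks on.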

[2] = system: soybean; assay: Test Example 4: effect on crop by soil treatment (symbol d); details: for d: soybean, effect grade on crop: 320 g/ha; for Effect on crop grade, d: soybean: application herbicide amount 320 g/ha
Outline: (§2)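 Crop seeds, among them rice, wheat, beet and rapeseed, were sown in sterilized diluvial soil and covered with about 1.5 cm of soil. Boxes were kept in a greenhouse at 25° C. to 30° C. for plant growth.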

[3] = system: Avena fatua; assay: Test Example 4: herbicidal effect by soil treatment (symbol I); details: for I: Avena fatua, herbicidal effect grade: 320 g/ha; for Herbicidal effect grade, I: Avena fatua: application herbicide amount 320 g/ha
Outline: (§3)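 Seeds were sown in sterilized diluvial soil, covered with about 1.5 cm of soil, and the soil surface was sprayed with a water-diluted emulsion of the compound at a predetermined rate. Plants grew in a greenhouse at 25° C. to 30° C.; effects were scored visually 3 weeks after application.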

[4] = system: wheat; assay: Test Example 4: effect on crop by soil treatment (symbol e); details: for e: wheat, effect grade on crop: 320 g/ha; for Effect on crop grade, e: wheat: application herbicide amount 320 g/ha
Outline: as §2

[5] = system: Scirpus juncoides; assay: Test Example 1: herbicidal activity, application before weed generation in submerged conditions (symbol B); details: application herbicide amount 320 g/ha
Outline: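 Scores run 0 to 5 by herbicidal ratio, with 5 meaning 90% or more and 0 meaning 5% or lower, read 3 weeks after treatment. Compound was applied as a diluted emulsion to the water surface of submerged alluvial-soil pots on the day weed seeds were sown.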

[6] = system: rice; assay: Test Example 4: effect on crop by soil treatment (symbol b); details: for b: directly sowed rice plant, effect grade on crop: 320 g/ha; for Effect on crop grade, b: directly sowed rice plant: application herbicide amount 320 g/ha
Outline: as §2

[7] = system: Echinochloa crus-galli var. crus-galli; assay: Test Example 5: herbicidal effect by foliage application, plastic box (symbol H); details: 320 g/ha, 3 weeks after application
Outline: as §1

[8] = system: Veronica persica; assay: Test Example 4: herbicidal effect by soil treatment (symbol R); details: for R: Veronica persica, herbicidal effect grade: 320 g/ha; for Herbicidal effect grade, R: Veronica persica: application herbicide amount 320 g/ha
Outline: as §3

[9] = system: Stellaria media; assay: Test Example 4: herbicidal effect by soil treatment (symbol P); details: for P: Stellaria media, herbicidal effect grade: 320 g/ha; for Herbicidal effect grade, P: Stellaria media: application herbicide amount 320 g/ha
Outline: as §3

[10] = system: rice plant; assay: Test Example 5: effect on crop by foliage application, plastic box (symbol b); details: 320 g/ha, 3 weeks after application
Outline: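 Plants were raised from seed in a greenhouse (25° C. to 30° C.) after sowing in a plastic box of sterilized diluvial soil.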

[11] = system: Monochoria vaginalis; assay: Test Example 2: herbicidal activity, application during weed generation in submerged conditions (symbol C); details: Table 23; application herbicide amount 320 g/ha; grade 0-5 by criteria of Test Example 1
Outline: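 Treatment timing was the one- to two-leaf stage, with diluted emulsifiable compound dropped onto the paddy water (depth 4 cm) over alluvial soil. All three species grew from a mixed sowing in a 25° C. to 30° C. greenhouse. Injury was judged by eye 3 weeks on.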

[12] = system: Apera spica-venti; assay: Test Example 4: herbicidal effect by soil treatment (symbol L); details: for L: Apera spica-venti, herbicidal effect grade: 320 g/ha; for Herbicidal effect grade, L: Apera spica-venti: application herbicide amount 320 g/ha
Outline: as §3

[13] = system: Alopecurus myosuroides; assay: Test Example 4: herbicidal effect by soil treatment (symbol J); details: for J: Alopecurus myosuroides, herbicidal effect grade: 320 g/ha; for Herbicidal effect grade, J: Alopecurus myosuroides: application herbicide amount 320 g/ha
Outline: as §3

[14] = system: Abutilon theophrasti; assay: Test Example 4: herbicidal effect by soil treatment (symbol M); details: for M: Abutilon theophrasti, herbicidal effect grade: 320 g/ha; for Herbicidal effect grade, M: Abutilon theophrasti: application herbicide amount 320 g/ha
Outline: as §3

[15] = system: Chenopodium album; assay: Test Example 5: herbicidal effect by foliage application, plastic box (symbol O); details: 320 g/ha, 3 weeks after application
Outline: as §1

[16] = system: Setaria viridis; assay: Test Example 4: herbicidal effect by soil treatment (symbol G); details: for G: Setaria viridis, herbicidal effect grade: 320 g/ha; for Herbicidal effect grade, G: Setaria viridis: application herbicide amount 320 g/ha
Outline: as §3

[17] = system: Alopecurus myosuroides; assay: Test Example 5: herbicidal effect by foliage application, plastic box (symbol J); details: 320 g/ha, 3 weeks after application
Outline: as §1

| Structure (SMILES) | F: Digitaria ciliaris, herbicidal effect (criteria 0-5) [1] | d: soybean, effect grade on crop [2] | I: Avena fatua, herbicidal effect grade [3] | e: wheat, effect grade on crop [4] | Herbicidal effect grade, B: Scirpus juncoides [5] | b: directly sowed rice plant, effect grade on crop [6] | H: Echinochloa crus-galli var. crus-galli, herbicidal effect (criteria 0-5) [7] | R: Veronica persica, herbicidal effect grade [8] | P: Stellaria media, herbicidal effect grade [9] | b: directly sowed rice plant, effect on crop (criteria 0-5) [10] | Herbicidal effect grade, C: Monochoria vaginalis [11] | L: Apera spica-venti, herbicidal effect grade [12] | J: Alopecurus myosuroides, herbicidal effect grade [13] | M: Abutilon theophrasti, herbicidal effect grade [14] | O: Chenopodium album, herbicidal effect (criteria 0-5) [15] | G: Setaria viridis, herbicidal effect grade [16] | J: Alopecurus myosuroides, herbicidal effect (criteria 0-5) [17] | F: Digitaria ciliaris, herbicidal effect grade [1] | Effect on crop grade, d: soybean [2] | Herbicidal effect grade, I: Avena fatua [3] | further results |
| --- | --- | --- | --- | --- | --- | --- | --- | --- | --- | --- | --- | --- | --- | --- | --- | --- | --- | --- | --- | --- | --- |
| Cc1cc(C)c(C2=C(O)CC(CC(=NOCC(F)(F)F)C3CC3)C2=O)c(C)c1 (stereo not shown) [1-131] | 0 (Herbicidal ratio of 5% or lower (almost no effect)) | 0 (Herbicidal ratio of 5% or lower (almost no effect)) | 3 (Herbicidal ratio of 40% or higher and lower than 70%) | 0 (Herbicidal ratio of 5% or lower (almost no effect)) | 4 (Herbicidal ratio of 70% or higher and lower than 90%) | 5 (Herbicidal ratio of 90% or more (almost completely withered)) | 4 (Herbicidal ratio of 70% or higher and lower than 90%) | 3 (Herbicidal ratio of 40% or higher and lower than 70%) | 0 (Herbicidal ratio of 5% or lower (almost no effect)) | 4 (Herbicidal ratio of 70% or higher and lower than 90%) | 0 (Herbicidal ratio of 5% or lower (almost no effect)) | 5 (Herbicidal ratio of 90% or more (almost completely withered)) | 5 (Herbicidal ratio of 90% or more (almost completely withered)) | 0 (Herbicidal ratio of 5% or lower (almost no effect)) | 0 (Herbicidal ratio of 5% or lower (almost no effect)) | 5 (Herbicidal ratio of 90% or more (almost completely withered)) | 5 (Herbicidal ratio of 90% or more (almost completely withered)) |  |  |  |  |
| CCC(Oc1ccc2ncc(Br)cc2c1)C(=O)OC1=C(c2c(C)cc(C)cc2C)C(=O)C(CC(C)=NOC)C1 (stereo not shown) [1-140] | 5 (Herbicidal ratio of 90% or more (almost completely withered)) | 1 (Herbicidal ratio of 5% or higher and lower than 20%) | 4 (Herbicidal ratio of 70% or higher and lower than 90%) | 5 (Herbicidal ratio of 90% or more (almost completely withered)) | 5 (Herbicidal ratio of 90% or more (almost completely withered)) | 5 (Herbicidal ratio of 90% or more (almost completely withered)) | 5 (Herbicidal ratio of 90% or more (almost completely withered)) | 0 (Herbicidal ratio of 5% or lower (almost no effect)) | 0 (Herbicidal ratio of 5% or lower (almost no effect)) | 5 (Herbicidal ratio of 90% or more (almost completely withered)) | 3 (Herbicidal ratio of 40% or higher and lower than 70%) | 5 (Herbicidal ratio of 90% or more (almost completely withered)) | 5 (Herbicidal ratio of 90% or more (almost completely withered)) | 5 (Herbicidal ratio of 90% or more (almost completely withered)) | 2 (Herbicidal ratio of 20% or higher and lower than 40%) | 5 (Herbicidal ratio of 90% or more (almost completely withered)) | 5 (Herbicidal ratio of 90% or more (almost completely withered)) |  |  |  |  |
| CC#Cc1cc(C)c(C2=C(O)CC(CC(=NOCCOC)C(C)C)C2=O)c(C)c1 (stereo not shown) [9-023] |  |  |  |  |  |  |  |  |  |  | 1 (Herbicidal ratio of 5% or higher and lower than 20%) |  |  |  |  |  |  | 5 (Herbicidal ratio of 90% or more (almost completely withered)) | 0 (Herbicidal ratio of 5% or lower (almost no effect)) | 2 (Herbicidal ratio of 20% or higher and lower than 40%) | Effect on crop grade, e: wheat [4]: 3 (Herbicidal ratio of 40% or higher and lower than 70%); B (Scirpus juncoides) herbicidal effect grade [5]: 5 (Herbicidal ratio of 90% or more (almost completely withered)); Effect on crop grade, b: directly sowed rice plant [6]: 5 (Herbicidal ratio of 90% or more (almost completely withered)); H: Echinochloa crus-galli var. crus-galli, herbicidal effect grade [7]: 5 (Herbicidal ratio of 90% or more (almost completely withered)); Herbicidal effect grade, R: Veronica persica [8]: 0 (Herbicidal ratio of 5% or lower (almost no effect)); Herbicidal effect grade, P: Stellaria media [9]: 0 (Herbicidal ratio of 5% or lower (almost no effect)); b: directly sowed rice plant, effect on crop grade [10]: 5 (Herbicidal ratio of 90% or more (almost completely withered)); Herbicidal effect grade, L: Apera spica-venti [12]: 5 (Herbicidal ratio of 90% or more (almost completely withered)); Herbicidal effect grade, J: Alopecurus myosuroides [13]: 3 (Herbicidal ratio of 40% or higher and lower than 70%); Herbicidal effect grade, M: Abutilon theophrasti [14]: 0 (Herbicidal ratio of 5% or lower (almost no effect)); O: Chenopodium album, herbicidal effect grade [15]: 3 (Herbicidal ratio of 40% or higher and lower than 70%); Herbicidal effect grade, G: Setaria viridis [16]: 5 (Herbicidal ratio of 90% or more (almost completely withered)); J: Alopecurus myosuroides, herbicidal effect grade [17]: 5 (Herbicidal ratio of 90% or more (almost completely withered)) |
| CON=C(C)CC1CC(OC(=O)N2CCOCC2)=C(c2c(C)cc(C)cc2C)C1=O (stereo not shown) [1-104] | 5 (Herbicidal ratio of 90% or more (almost completely withered)) | 0 (Herbicidal ratio of 5% or lower (almost no effect)) | 3 (Herbicidal ratio of 40% or higher and lower than 70%) | 1 (Herbicidal ratio of 5% or higher and lower than 20%) | 4 (Herbicidal ratio of 70% or higher and lower than 90%) | 5 (Herbicidal ratio of 90% or more (almost completely withered)) | 5 (Herbicidal ratio of 90% or more (almost completely withered)) | 0 (Herbicidal ratio of 5% or lower (almost no effect)) | 0 (Herbicidal ratio of 5% or lower (almost no effect)) | 5 (Herbicidal ratio of 90% or more (almost completely withered)) | 0 (Herbicidal ratio of 5% or lower (almost no effect)) | 5 (Herbicidal ratio of 90% or more (almost completely withered)) | 5 (Herbicidal ratio of 90% or more (almost completely withered)) | 4 (Herbicidal ratio of 70% or higher and lower than 90%) | 2 (Herbicidal ratio of 20% or higher and lower than 40%) | 5 (Herbicidal ratio of 90% or more (almost completely withered)) | 5 (Herbicidal ratio of 90% or more (almost completely withered)) |  |  |  |  |
| Cc1cc(Br)cc(C)c1C1=C(O)CC(CC(=O)C(C)C)C1=O (racemic) [10-003] |  |  |  |  |  |  |  |  |  |  | 0 (Herbicidal ratio of 5% or lower (almost no effect)) |  |  |  |  |  |  | 3 (Herbicidal ratio of 40% or higher and lower than 70%) | 0 (Herbicidal ratio of 5% or lower (almost no effect)) | 0 (Herbicidal ratio of 5% or lower (almost no effect)) | Effect on crop grade, e: wheat [4]: 0 (Herbicidal ratio of 5% or lower (almost no effect)); B (Scirpus juncoides) herbicidal effect grade [5]: 0 (Herbicidal ratio of 5% or lower (almost no effect)); Effect on crop grade, b: directly sowed rice plant [6]: 4 (Herbicidal ratio of 70% or higher and lower than 90%); H: Echinochloa crus-galli var. crus-galli, herbicidal effect grade [7]: 5 (Herbicidal ratio of 90% or more (almost completely withered)); Herbicidal effect grade, R: Veronica persica [8]: 0 (Herbicidal ratio of 5% or lower (almost no effect)); Herbicidal effect grade, P: Stellaria media [9]: 0 (Herbicidal ratio of 5% or lower (almost no effect)); b: directly sowed rice plant, effect on crop grade [10]: 4 (Herbicidal ratio of 70% or higher and lower than 90%); Herbicidal effect grade, L: Apera spica-venti [12]: 3 (Herbicidal ratio of 40% or higher and lower than 70%); Herbicidal effect grade, J: Alopecurus myosuroides [13]: 3 (Herbicidal ratio of 40% or higher and lower than 70%); Herbicidal effect grade, M: Abutilon theophrasti [14]: 0 (Herbicidal ratio of 5% or lower (almost no effect)); O: Chenopodium album, herbicidal effect grade [15]: 0 (Herbicidal ratio of 5% or lower (almost no effect)); Herbicidal effect grade, G: Setaria viridis [16]: 4 (Herbicidal ratio of 70% or higher and lower than 90%); J: Alopecurus myosuroides, herbicidal effect grade [17]: 3 (Herbicidal ratio of 40% or higher and lower than 70%) |

— patent US11000033B2, “Ketone or oxime compound, and herbicide” (NISSAN CHEMICAL CORPORATION, priority 2014, dated 2021)
